A word on the IC50: it is the concentration needed to halve the response being measured.

Starred links: 1 amine or outer side, 2 acyl side, 3 side chain; linkers in the order of their positions; H or OH if unused. Positions of bridges follow the written chain, without caps; N, C: chain ends. Non-standard residues stand in square brackets, D forms with d. Residues, ends and D or L forms follow the SMILES beside them. ξ: configuration not given here. *: point of attachment. X56 = O=C(O)COc1cccc(NC(=O)c2ccc(-c3ccc(C[C@H](N[*:1])C(=O)[*:2])cc3)cc2)c1; X22 = O=C(O)COc1cccc(C(=O)N[C@@H](Cc2cn(CC(=O)O)c3ccccc23)C(=O)*)c1; Bip(4'-NH) = O=C([C@H](Cc1ccc(-c2ccc(N[*:3])cc2)cc1)N[*:1])[*:2]; X71 = O=C(O)Cn1cc(C[C@H](NC(=O)c2cccc(C(=O)O)c2)C(=O)*)c2ccccc21; Bip(4'-CONHMe) = CNC(=O)c1ccc(-c2ccc(C[C@H](N)C(=O)O)cc2)cc1; Indazole3carbonyl(1-CH2COOH) = O=C(O)Cn1nc(C(=O)*)c2ccccc21; Bip(4'-COOH) = N[C@@H](Cc1ccc(-c2ccc(C(=O)O)cc2)cc1)C(=O)O; X76 = O=C(O)CCC(=O)N[C@@H](Cc1cn(CC(=O)O)c2ccccc12)C(=O)*; X29 = N=C(NCCC[C@@H](N[*:1])C(=O)[*:2])NCCc1ccc(F)c(F)c1; Trp(1-CH2COOH) = N[C@@H](Cc1cn(CC(=O)O)c2ccccc12)C(=O)O; X11 = CC(=O)N[C@@H](Cc1cn(CC(=O)O)c2ccccc12)C(=O)*; Ala(imidazol-2-yl) = N[C@@H](Cc1ncc[nH]1)C(=O)O; Ala(morpholin-4-yl) = N[C@@H](CN1CCOCC1)C(=O)O; Benzoyl(3-OCH2COOH) = O=C(O)COc1cccc(C(=O)*)c1; X88 = CC(=O)N[C@@H](Cc1ccc(OCC(=O)O)cc1)C(=O)*; Bip = N[C@@H](Cc1ccc(-c2ccccc2)cc1)C(=O)O; X81 = N[C@@H](Cc1ccc(OCC(=O)O)cc1)C(=O)*; X60 = O=C(c1ccc2c(c1)CCc1ccccc1-2)*; X61 = O=C(c1ccc2c(c1)Cc1ccccc1-2)*; X16 = Cc1noc(-c2ccc(C(=O)*)cc2)n1; Tic = O=C(O)[C@@H]1Cc2ccccc2CN1; Cha = N[C@@H](CC1CCCCC1)C(=O)O; Tle = CC(C)(C)[C@H](N)C(=O)O; ξP = O=C(O)C1CCCN1; Sar = CNCC(=O)O Bounds are passed on as bounds.

Data on 13 molecules can be found in patent publication US20250145665A1, “MACROCYCLIC PEPTIDES USEFUL AS MODULATORS OF TNF ALPHA” (Bristol-Myers Squibb Company, priority 2023, published 2025).

In the first assay the target is TNFα (Homo sapiens, UniProt P01375). Kind of assay: TNF-Induced HEK-Blue Assay.
TNFα, sequence (P01375 77-233 limits assumed): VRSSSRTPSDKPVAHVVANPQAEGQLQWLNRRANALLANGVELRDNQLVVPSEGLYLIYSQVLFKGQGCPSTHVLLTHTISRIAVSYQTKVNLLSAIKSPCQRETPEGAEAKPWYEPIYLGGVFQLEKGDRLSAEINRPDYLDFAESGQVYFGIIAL
Details: not given
It is filed as cell-based.
The molecule `CC(C)C[C@@H]1NC(=O)[C@H](CCCNC(=N)N)NC(=O)[C@H](C(C)C)NC(=O)[C@@H]2CCCN2C(=O)[C@H](C(C)C)NC(=O)[C@@H](CCCNC(=N)NCCc2ccc(F)c(F)c2)NC(=O)[C@H](CC(=O)O)NC(=O)[C@@H]2CCCN2C(=O)CN(C)C(=O)[C@H](Cc2ccc(-c3ccc(NC(=O)c4nn(CC(=O)O)c5ccccc45)cc3)cc2)NC(=O)[C@H](Cc2ccc(-c3ccccc3)cc2)NC(=O)[C@H](CN2CCOCC2)NC(=O)CSC[C@@H](C(=O)NCC(N)=O)NC1=O` [Example 423] ({CH2CO}-[Ala(morpholin-4-yl)][Bip][Bip(4'-NH)](Indazole3carbonyl(1-CH2COOH))[Sar]PD[X29]VPVRLCG-NH2; thioether N-13) yielded an IC50 of less than 50 nM. `CNC(=O)c1ccc(-c2ccc(C[C@@H]3NC(=O)[C@H](CN4CCOCC4)NC(=O)CSC[C@@H](C(=O)NCC(N)=O)NC(=O)[C@H](CC(C)C)NC(=O)[C@H](CCCNC(=N)N)NC(=O)[C@H](C(C)C)NC(=O)[C@@H]4CCCN4C(=O)[C@H](C(C)C)NC(=O)[C@@H](CCCNC(=N)NCCc4ccc(F)c(F)c4)NC(=O)[C@H](CC(=O)O)NC(=O)[C@@H]4CCCN4C(=O)CN(C)C(=O)[C@H](Cc4ccc(-c5ccc(NC(=O)c6nn(CC(=O)O)c7ccccc67)cc5)cc4)NC3=O)cc2)cc1` [Example 424] ({CH2CO}-[Ala(morpholin-4-yl)][Bip(4'-CONHMe)][Bip(4'-NH)](Indazole3carbonyl(1-CH2COOH))[Sar]PD[X29]VPVRLCG-NH2; thioether N-13) showed an IC50 of 50 to 200 nM.

Staying with this assay, now noted: HEK-Blue-CD40L cells, NF-kB-driven secreted alkaline phosphatase reporter; TNFα 0.5 ng/ml; 18 h; read-out: TNF induced HEK-Blue assay IC50 value.
Consider `CC[C@H](C)[C@@H]1NC(=O)[C@@H](CCCNC(=N)N)NC(=O)[C@H](CC(=O)O)NC(=O)[C@H](Cc2cnc[nH]2)NC(=O)CN(C)C(=O)[C@H](Cc2ccc(-c3ccc(NC(=O)c4ccc(-c5nc(C)no5)cc4)cc3)cc2)NC(=O)[C@H](Cc2ccc(-c3ccc(C(=O)O)cc3)cc2)NC(=O)[C@H](CC2CCCCC2)NC(=O)CSC[C@@H](C(=O)NCC(N)=O)NC(=O)[C@H](CC(C)C)NC(=O)[C@H](Cc2ncc[nH]2)NC(=O)[C@H](C(C)C)NC(=O)[C@@H]2Cc3ccccc3CN2C1=O` [Example 412] ({CH2CO}-[Cha][Bip(4'-COOH)][Bip(4'-NH)](X16)[Sar]HD[dR]I[Tic]V[Ala(imidazol-2-yl)]LCG-NH2; thioether N-13), for which the IC50 was 50 to 200 nM.

As for `CC[C@H](C)[C@@H]1NC(=O)[C@@H](CCCNC(=N)N)NC(=O)[C@H](CC(=O)O)NC(=O)[C@H](Cc2cnc[nH]2)NC(=O)CN(C)C(=O)[C@H](Cc2ccc(-c3ccc(NC(=O)[C@H](Cc4cn(CC(=O)O)c5ccccc45)NC(=O)CCC(=O)O)cc3)cc2)NC(=O)[C@H](Cc2ccc(-c3ccccc3)cc2)NC(=O)[C@H](CC2CCCCC2)NC(=O)CSC[C@@H](C(=O)NCC(N)=O)NC(=O)[C@H](CC(C)C)NC(=O)[C@H](Cc2ncc[nH]2)NC(=O)[C@H](C(C)C)NC(=O)[C@@H]2CCCN2C1=O` [Example 413] ({CH2CO}-[Cha][Bip][Bip(4'-NH)](X76)[Sar]HD[dR]IPV[Ala(imidazol-2-yl)]LCG-NH2; thioether N-13), the IC50 was 200 to 2000 nM.

Regarding `CC[C@H](C)[C@@H]1NC(=O)[C@@H](CCCNC(=N)N)NC(=O)[C@H](CC(=O)O)NC(=O)[C@H](Cc2cnc[nH]2)NC(=O)CN(C)C(=O)[C@H](Cc2ccc(-c3ccc(NC(=O)[C@H](Cc4cn(CC(=O)O)c5ccccc45)NC(=O)c4cccc(OCC(=O)O)c4)cc3)cc2)NC(=O)[C@H](Cc2ccc(-c3ccccc3)cc2)NC(=O)[C@H](CC2CCCCC2)NC(=O)CSC[C@@H](C(=O)NCC(N)=O)NC(=O)[C@H](CC(C)C)NC(=O)[C@H](Cc2ncc[nH]2)NC(=O)[C@H](C(C)C)NC(=O)[C@@H]2CCCN2C1=O` [Example 414] ({CH2CO}-[Cha][Bip][Bip(4'-NH)](X22)[Sar]HD[dR]IPV[Ala(imidazol-2-yl)]LCG-NH2; thioether N-13), the IC50 lay in the range of 50 to 200 nM.

Regarding `CC[C@H](C)[C@@H]1NC(=O)[C@@H](CCCNC(=N)N)NC(=O)[C@H](CC(=O)O)NC(=O)[C@H](Cc2cnc[nH]2)NC(=O)CN(C)C(=O)[C@H](Cc2ccc(-c3ccc(NC(=O)[C@H](Cc4cn(CC(=O)O)c5ccccc45)NC(=O)c4cccc(C(=O)O)c4)cc3)cc2)NC(=O)[C@H](Cc2ccc(-c3ccccc3)cc2)NC(=O)[C@H](CC2CCCCC2)NC(=O)CSC[C@@H](C(=O)NCC(N)=O)NC(=O)[C@H](CC(C)C)NC(=O)[C@H](Cc2ncc[nH]2)NC(=O)[C@H](C(C)C)NC(=O)[C@@H]2CCCN2C1=O` [Example 415] ({CH2CO}-[Cha][Bip][Bip(4'-NH)](X71)[Sar]HD[dR]IPV[Ala(imidazol-2-yl)]LCG-NH2; thioether N-13), the IC50 fell in the range of 50 to 200 nM. Still for that read-out and setting: the figure for `CC[C@H](C)[C@@H]1NC(=O)[C@@H]2CCCN2C(=O)[C@H]([C@@H](C)CC)NC(=O)[C@@H](CCCNC(=N)N)NC(=O)[C@H](CC(=O)O)NC(=O)[C@H](Cc2ccccc2)NC(=O)CN(C)C(=O)[C@H](Cc2ccc(-c3ccc(NC(=O)[C@H](Cc4cn(CC(=O)O)c5ccccc45)NC(C)=O)cc3)cc2)NC(=O)[C@H](Cc2ccc(-c3ccc(C(=O)O)cc3)cc2)NC(=O)[C@H](C(C)(C)C)NC(=O)CSC[C@@H](C(=O)NCC(N)=O)NC(=O)[C@H](CC(C)C)NC(=O)[C@H](Cc2ncc[nH]2)NC1=O` [Example 416] ({CH2CO}-[Tle][Bip(4'-COOH)][Bip(4'-NH)](X11)[Sar]FD[dR]IPI[Ala(imidazol-2-yl)]LCG-NH2; thioether N-13) is 50 to 200 nM. On the same count and under the same terms, under `CC[C@H](C)[C@@H]1NC(=O)[C@@H]2CCCN2C(=O)[C@H]([C@@H](C)CC)NC(=O)[C@@H](CCCNC(=N)N)NC(=O)[C@H](CC(=O)O)NC(=O)[C@H](Cc2ccccc2)NC(=O)CN(C)C(=O)[C@H](Cc2ccc(-c3ccc(NC(=O)[C@H](Cc4ccc(OCC(=O)O)cc4)NC(C)=O)cc3)cc2)NC(=O)[C@H](Cc2ccc(-c3ccc(C(=O)O)cc3)cc2)NC(=O)[C@H](C(C)(C)C)NC(=O)CSC[C@@H](C(=O)NCC(N)=O)NC(=O)[C@H](CC(C)C)NC(=O)[C@H](Cc2ncc[nH]2)NC1=O` [Example 417] ({CH2CO}-[Tle][Bip(4'-COOH)][Bip(4'-NH)](X88)[Sar]FD[dR]IPI[Ala(imidazol-2-yl)]LCG-NH2; thioether N-13) stands less than 50 nM. The same measure, in the same setting: the figure for `CC[C@H](C)[C@@H]1NC(=O)[C@@H]2CCCN2C(=O)[C@H]([C@@H](C)CC)NC(=O)[C@@H](CCCNC(=N)N)NC(=O)[C@H](CC(=O)O)NC(=O)[C@H](Cc2ccccc2)NC(=O)CN(C)C(=O)[C@H](Cc2ccc(-c3ccc(NC(=O)c4ccc5c(c4)Cc4ccccc4-5)cc3)cc2)NC(=O)[C@H](Cc2ccc(-c3ccc(C(=O)O)cc3)cc2)NC(=O)[C@H](C(C)(C)C)NC(=O)CSC[C@@H](C(=O)NCC(N)=O)NC(=O)[C@H](CC(C)C)NC(=O)[C@H](Cc2cnc[nH]2)NC1=O` [Example 418] ({CH2CO}-[Tle][Bip(4'-COOH)][Bip(4'-NH)](X61)[Sar]FD[dR]IPIHLCG-NH2; thioether N-13) is 50 to 200 nM.

As to `CC[C@H](C)[C@@H]1NC(=O)C2CCCN2C(=O)[C@H]([C@@H](C)CC)NC(=O)[C@@H](CCCNC(=N)N)NC(=O)[C@H](CC(=O)O)NC(=O)[C@H](Cc2ccccc2)NC(=O)CN(C)C(=O)[C@H](Cc2ccc(-c3ccc(NC(=O)c4ccc5c(c4)CCc4ccccc4-5)cc3)cc2)NC(=O)[C@H](Cc2ccc(-c3ccc(C(=O)O)cc3)cc2)NC(=O)[C@H](C(C)(C)C)NC(=O)CSC[C@@H](C(=O)NCC(N)=O)NC(=O)[C@H](CC(C)C)NC(=O)[C@H](Cc2ncc[nH]2)NC1=O` (stereo partly shown) [Example 419] ({CH2CO}-[Tle][Bip(4'-COOH)][Bip(4'-NH)](X60)[Sar]FD[dR]I[ξP]I[Ala(imidazol-2-yl)]LCG-NH2; thioether N-13), the IC50 lay within 200 to 2000 nM. Same read-out and setting: under `CC[C@H](C)[C@@H]1NC(=O)[C@@H](CCCNC(=N)N)NC(=O)[C@H](CC(=O)O)NC(=O)[C@H](Cc2cnc[nH]2)NC(=O)CN(C)C(=O)[C@H](Cc2ccc(-c3ccc(NC(=O)[C@@H](N)Cc4cn(CC(=O)O)c5ccccc45)cc3)cc2)NC(=O)[C@H](Cc2ccc(-c3ccccc3)cc2)NC(=O)[C@H](CC2CCCCC2)NC(=O)CSC[C@@H](C(=O)NCC(N)=O)NC(=O)[C@H](CC(C)C)NC(=O)[C@H](Cc2ncc[nH]2)NC(=O)[C@H](C(C)C)NC(=O)C2CCCN2C1=O` (stereo partly shown) [Example 420] ({CH2CO}-[Cha][Bip][Bip(4'-NH)](Trp(1-CH2COOH))[Sar]HD[dR]I[ξP]V[Ala(imidazol-2-yl)]LCG-NH2; thioether N-13) stands 50 to 200 nM; under `CC[C@H](C)[C@@H]1NC(=O)C2CCCN2C(=O)[C@H]([C@@H](C)CC)NC(=O)[C@@H](CCCNC(=N)N)NC(=O)[C@H](CC(=O)O)NC(=O)[C@H](Cc2ccccc2)NC(=O)CN(C)C(=O)[C@H](Cc2ccc(-c3ccc(NC(=O)[C@@H](N)Cc4ccc(OCC(=O)O)cc4)cc3)cc2)NC(=O)[C@H](Cc2ccc(-c3ccc(C(=O)O)cc3)cc2)NC(=O)[C@H](C(C)(C)C)NC(=O)CSC[C@@H](C(=O)NCC(N)=O)NC(=O)[C@H](CC(C)C)NC(=O)[C@H](Cc2ncc[nH]2)NC1=O` (stereo partly shown) [Example 421] ({CH2CO}-[Tle][Bip(4'-COOH)][Bip(4'-NH)](X81)[Sar]FD[dR]I[ξP]I[Ala(imidazol-2-yl)]LCG-NH2; thioether N-13), 50 to 200 nM.

Turning to `CC[C@H](C)[C@@H]1NC(=O)[C@@H](CCCNC(=N)N)NC(=O)[C@H](CC(=O)O)NC(=O)[C@H](Cc2cnc[nH]2)NC(=O)CN(C)C(=O)[C@H](Cc2ccc(-c3ccc(NC(=O)c4cccc(OCC(=O)O)c4)cc3)cc2)NC(=O)[C@H](Cc2ccc(-c3ccc(C(=O)Nc4cccc(OCC(=O)O)c4)cc3)cc2)NC(=O)[C@H](CC2CCCCC2)NC(=O)CSC[C@@H](C(=O)NCC(N)=O)NC(=O)[C@H](CC(C)C)NC(=O)[C@H](Cc2ncc[nH]2)NC(=O)[C@H](C(C)C)NC(=O)C2CCCN2C1=O` (stereo partly shown) [Example 422] ({CH2CO}-[Cha][X56][Bip(4'-NH)](Benzoyl(3-OCH2COOH))[Sar]HD[dR]I[ξP]V[Ala(imidazol-2-yl)]LCG-NH2; thioether N-13), the IC50 is less than 50 nM.
